According to patent publication US9962369B2, “Methods and compositions for transdermal delivery” (SPRAYABLE HOLDINGS, INC., priority 2014, dated 2018):

Test: Transdermal delivery of melatonin: plasma level of melatonin after applying composition to skin of a subject
Settings: for concentration at 0 h / concentration at 1 h / concentration at 2 h / concentration at 0 hr / concentration at 1 hr / concentration at 2 hr / concentration at 4 hr / concentration at 8 hr / concentration at 4 h / concentration at 8 h: human, plasma, topical, 3 mg

Plasma level of melatonin (2-(Dimethylamino)ethyl 2-(4-isobutylphenyl)propionate hydrochloride 222.60 mM, 0.60 mL applied to skin, 1 hr after transdermal administration): 1.5 ng/mL
Plasma level of melatonin (2-(Dimethylamino)ethyl 2-(4-isobutylphenyl)propionate hydrochloride 222.60 mM, 0.60 mL applied to skin, 2 hr after transdermal administration): 1.7 ng/mL
Plasma level of melatonin (2-(Dimethylamino)ethyl 2-(4-isobutylphenyl)propionate hydrochloride 222.60 mM, 0.60 mL applied to skin, 4 hr after transdermal administration): 1.6 ng/mL
Plasma level of melatonin (2-(Dimethylamino)ethyl 2-(4-isobutylphenyl)propionate hydrochloride 222.60 mM, 0.60 mL applied to skin, 8 hr after transdermal administration): 1.5 ng/mL
Plasma level of melatonin (4-(Diethylamino)butyl 2-(4-isobutylphenyl)propionate hydrochloride 189.21 mM, 0.60 mL applied to skin, 0 hr after transdermal administration): 0 ng/mL
Plasma level of melatonin (4-(Diethylamino)butyl 2-(4-isobutylphenyl)propionate hydrochloride 189.21 mM, 0.60 mL applied to skin, 1 hr after transdermal administration): 1.4 ng/mL
Plasma level of melatonin (4-(Diethylamino)butyl 2-(4-isobutylphenyl)propionate hydrochloride 189.21 mM, 0.60 mL applied to skin, 2 hr after transdermal administration): 1.5 ng/mL
Plasma level of melatonin (4-(Diethylamino)butyl 2-(4-isobutylphenyl)propionate hydrochloride 189.21 mM, 0.60 mL applied to skin, 4 hr after transdermal administration): 1.5 ng/mL
Plasma level of melatonin (4-(Diethylamino)butyl 2-(4-isobutylphenyl)propionate hydrochloride 189.21 mM, 0.60 mL applied to skin, 8 hr after transdermal administration): 1.3 ng/mL
Plasma level of melatonin (5-(Diethylamino)pentyl 2-(4-isobutylphenyl)propionate hydrochloride 182.28 mM, 0.60 mL applied to skin, 1 hr after transdermal administration): 1.6 ng/mL
Plasma level of melatonin (5-(Diethylamino)pentyl 2-(4-isobutylphenyl)propionate hydrochloride 182.28 mM, 0.60 mL applied to skin, 2 hr after transdermal administration): 1.9 ng/mL
Plasma level of melatonin (5-(Diethylamino)pentyl 2-(4-isobutylphenyl)propionate hydrochloride 182.28 mM, 0.60 mL applied to skin, 4 hr after transdermal administration): 1.9 ng/mL
Plasma level of melatonin (5-(Diethylamino)pentyl 2-(4-isobutylphenyl)propionate hydrochloride 182.28 mM, 0.60 mL applied to skin, 8 hr after transdermal administration): 1.7 ng/mL
Plasma level of melatonin (Helper esters: None (0 mM), 2.0 mL applied to skin, 0 hr after transdermal administration): 0.0 ng/mL
concentration at 0 h: 0 ng/mL
concentration at 0 h (Plasma level of melatonin, Helper esters: None (0 mM), 2.0 mL applied to skin, 0 hr after transdermal administration): 0 ng/mL
concentration at 1 h (Plasma level of melatonin, Helper esters: None (0 mM), 2.0 mL applied to skin, 1 hr after transdermal administration): 0.1 ng/mL
concentration at 2 h (Plasma level of melatonin, Helper esters: None (0 mM), 2.0 mL applied to skin, 2 hr after transdermal administration): 0.1 ng/mL
concentration at 0 hr (Plasma level of melatonin, Isoleucine hexyl ester 278.04 mM, 0.60 mL applied to skin, 0 hr after transdermal administration): 0 ng/mL
concentration at 1 hr (Plasma level of melatonin, Isoleucine hexyl ester 278.04 mM, 0.60 mL applied to skin, 1 hr after transdermal administration): 1.2 ng/mL
concentration at 2 hr (Plasma level of melatonin, Isoleucine hexyl ester 278.04 mM, 0.60 mL applied to skin, 2 hr after transdermal administration): 1.3 ng/mL
concentration at 4 hr (Plasma level of melatonin, Isoleucine hexyl ester 278.04 mM, 0.60 mL applied to skin, 4 hr after transdermal administration): 1.4 ng/mL
concentration at 8 hr (Plasma level of melatonin, Isoleucine hexyl ester 278.04 mM, 0.60 mL applied to skin, 8 hr after transdermal administration): 1.3 ng/mL
concentration at 0 hr (Plasma level of melatonin, Isoleucine isopropyl ester 333.76 mM, 0.60 mL applied to skin, 0 hr after transdermal administration): 0 ng/mL
concentration at 1 hr (Plasma level of melatonin, Isoleucine isopropyl ester 333.76 mM, 0.60 mL applied to skin, 1 hr after transdermal administration): 1.7 ng/mL
concentration at 2 hr (Plasma level of melatonin, Isoleucine isopropyl ester 333.76 mM, 0.60 mL applied to skin, 2 hr after transdermal administration): 1.8 ng/mL
concentration at 4 hr (Plasma level of melatonin, Isoleucine isopropyl ester 333.76 mM, 0.60 mL applied to skin, 4 hr after transdermal administration): 1.9 ng/mL
concentration at 8 hr (Plasma level of melatonin, Isoleucine isopropyl ester 333.76 mM, 0.60 mL applied to skin, 8 hr after transdermal administration): 1.8 ng/mL
concentration at 0 h (Plasma level of melatonin, Leucine hexyl ester hydrochloride 278.04 mM, 0.60 mL applied to skin, 0 hr after transdermal administration): 0 ng/mL
concentration at 1 h (Plasma level of melatonin, Leucine hexyl ester hydrochloride 278.04 mM, 0.60 mL applied to skin, 1 hr after transdermal administration): 1.4 ng/mL
concentration at 2 h (Plasma level of melatonin, Leucine hexyl ester hydrochloride 278.04 mM, 0.60 mL applied to skin, 2 hr after transdermal administration): 1.5 ng/mL
concentration at 4 hr (Plasma level of melatonin, Leucine hexyl ester hydrochloride 278.04 mM, 0.60 mL applied to skin, 4 hr after transdermal administration): 1.5 ng/mL
concentration at 8 hr (Plasma level of melatonin, Leucine hexyl ester hydrochloride 278.04 mM, 0.60 mL applied to skin, 8 hr after transdermal administration): 1.3 ng/mL
concentration at 0 h (Plasma level of melatonin, Leucine isopropyl ester hydrochloride 333.76 mM, 0.60 mL applied to skin, 0 hr after transdermal administration): 0 ng/mL
concentration at 1 h (Plasma level of melatonin, Leucine isopropyl ester hydrochloride 333.76 mM, 0.60 mL applied to skin, 1 hr after transdermal administration): 1.7 ng/mL
concentration at 2 h (Plasma level of melatonin, Leucine isopropyl ester hydrochloride 333.76 mM, 0.60 mL applied to skin, 2 hr after transdermal administration): 1.8 ng/mL
concentration at 4 h (Plasma level of melatonin, Leucine isopropyl ester hydrochloride 333.76 mM, 0.60 mL applied to skin, 4 hr after transdermal administration): 1.9 ng/mL
concentration at 8 h (Plasma level of melatonin, Leucine isopropyl ester hydrochloride 333.76 mM, 0.60 mL applied to skin, 8 hr after transdermal administration): 1.8 ng/mL
concentration at 0 hr (Plasma level of melatonin, Phenylalanine isopropyl ester hydrochloride 287.21 mM, 0.60 mL applied to skin, 0 hr after transdermal administration): 0 ng/mL
concentration at 1 hr (Plasma level of melatonin, Phenylalanine isopropyl ester hydrochloride 287.21 mM, 0.60 mL applied to skin, 1 hr after transdermal administration): 1.6 ng/mL
concentration at 2 hr (Plasma level of melatonin, Phenylalanine isopropyl ester hydrochloride 287.21 mM, 0.60 mL applied to skin, 2 hr after transdermal administration): 1.7 ng/mL
concentration at 4 hr (Plasma level of melatonin, Phenylalanine isopropyl ester hydrochloride 287.21 mM, 0.60 mL applied to skin, 4 hr after transdermal administration): 1.6 ng/mL
concentration at 8 hr (Plasma level of melatonin, Phenylalanine isopropyl ester hydrochloride 287.21 mM, 0.60 mL applied to skin, 8 hr after transdermal administration): 1.7 ng/mL
concentration at 0 h (Plasma level of melatonin, Phenylalanine octyl ester hydrochloride 223.02 mM, 0.60 mL applied to skin, 0 hr after transdermal administration): 0 ng/mL
concentration at 1 h (Plasma level of melatonin, Phenylalanine octyl ester hydrochloride 223.02 mM, 0.60 mL applied to skin, 1 hr after transdermal administration): 1.3 ng/mL
concentration at 2 h (Plasma level of melatonin, Phenylalanine octyl ester hydrochloride 223.02 mM, 0.60 mL applied to skin, 2 hr after transdermal administration): 1.4 ng/mL
concentration at 4 h (Plasma level of melatonin, Phenylalanine octyl ester hydrochloride 223.02 mM, 0.60 mL applied to skin, 4 hr after transdermal administration): 1.3 ng/mL
concentration at 8 h (Plasma level of melatonin, Phenylalanine octyl ester hydrochloride 223.02 mM, 0.60 mL applied to skin, 8 hr after transdermal administration): 1.2 ng/mL
concentration at 0 hr (Plasma level of melatonin, Table 20 control, A− N/A, helper esters 0 mM, 2.0 mL applied, 0 hr after transdermal administration): 0 ng/mL
concentration at 1 hr (Plasma level of melatonin, Table 20 control, A− N/A, helper esters 0 mM, 2.0 mL applied, 1 hr after transdermal administration): 0.1 ng/mL
concentration at 2 h (Plasma level of melatonin, Table 20 control, A− N/A, helper esters 0 mM, 2.0 mL applied, 2 hr after transdermal administration): 0.1 ng/mL
Structure (SMILES): COc1ccc2[nH]cc(CCNC(C)=O)c2c1 [Melatonin]
